In patent US20250034144A1, “NEW CRYSTAL FORM OF ERTAPENEM SODIUM AND PREPARATION METHOD THEREFOR” (ASYMCHEM LABORATORIES (TIANJIN) CO., LTD., priority 2021, published 2025):
Blank lines part the entries; values can stand above or below the compound they belong to.

Tests used:
[1] = Fluidity related test (densities, Carr index, Hausner ratio, angle of repose); assay type: physicochemical
Description: (Two) A fluidity related test was carried out on the crystal form A product of ertapenem sodium, the crystal form B product, the crystal form C product, the crystal form D product, the crystal form E product and the amorphous product of ertapenem sodium. [formula] [formula] [table]

[2] = Stability of the product at −18° C. (purity and content over 12 months); assay type: physicochemical
Description: Data of the stability of the product at −18° C. are shown in Table 2 below: […]

SMILES: C[C@@H](O)[C@H]1C(=O)N2C(C(=O)[O-])=C(S[C@@H]3CN[C@H](C(=O)Nc4cccc(C(=O)O)c4)C3)[C@H](C)[C@H]12.[Na+] [Amorphous, ertapenem sodium]
Angle of repose [1]: 47°
Bulk density [1]: 0.63 g/mL
Carr index [1]: 20%
Hausner ratio [1]: 1.25
Tap density [1]: 0.79 g/mL

SMILES: C[C@@H](O)[C@H]1C(=O)N2C(C(=O)[O-])=C(S[C@@H]3CN[C@H](C(=O)Nc4cccc(C(=O)O)c4)C3)[C@H](C)[C@H]12.[Na+] [Crystal form A, ertapenem sodium]
Angle of repose [1]: 43°
Bulk density [1]: 0.64 g/mL
Carr index [1]: 22%
Hausner ratio [1]: 1.28
Tap density [1]: 0.82 g/mL

SMILES: C[C@@H](O)[C@H]1C(=O)N2C(C(=O)[O-])=C(S[C@@H]3CN[C@H](C(=O)Nc4cccc(C(=O)O)c4)C3)[C@H](C)[C@H]12.[Na+] [Crystal form B, ertapenem sodium]
Angle of repose [1]: 41°
Bulk density [1]: 0.63 g/mL
Carr index [1]: 20%
Hausner ratio [1]: 1.25
Tap density [1]: 0.79 g/mL

SMILES: C[C@@H](O)[C@H]1C(=O)N2C(C(=O)[O-])=C(S[C@@H]3CN[C@H](C(=O)Nc4cccc(C(=O)O)c4)C3)[C@H](C)[C@H]12.[Na+] [Crystal form C, ertapenem sodium]
Angle of repose [1]: 43°
Bulk density [1]: 0.63 g/mL
Carr index [1]: 19%
Hausner ratio [1]: 1.24
Tap density [1]: 0.78 g/mL

SMILES: C[C@@H](O)[C@H]1C(=O)N2C(C(=O)[O-])=C(S[C@@H]3CN[C@H](C(=O)Nc4cccc(C(=O)O)c4)C3)[C@H](C)[C@H]12.[Na+] [Crystal form D, ertapenem sodium]
Angle of repose [1]: 47°
Bulk density [1]: 0.64 g/mL
Carr index [1]: 21%
Hausner ratio [1]: 1.27
Tap density [1]: 0.81 g/mL

SMILES: C[C@@H](O)[C@H]1C(=O)N2C(C(=O)[O-])=C(S[C@@H]3CN[C@H](C(=O)Nc4cccc(C(=O)O)c4)C3)[C@H](C)[C@H]12.[Na+] [Crystal form E, ertapenem sodium]
Angle of repose [1]: 46°
Bulk density [1]: 0.66 g/mL
Carr index [1]: 20%
Hausner ratio [1]: 1.26
Tap density [1]: 0.83 g/mL

Continued, values first:

Angle of repose [1]: 23°
Bulk density [1]: 0.64 g/mL
Carr index [1]: 10%
Hausner ratio [1]: 1.11
Tap density [1]: 0.71 g/mL
Fluidity (in words) ([1]; compared with crystal forms A-E and the amorphous product): better fluidity
SMILES: C[C@@H](O)[C@H]1C(=O)N2C(C(=O)[O-])=C(S[C@@H]3CN[C@H](C(=O)Nc4cccc(C(=O)O)c4)C3)[C@H](C)[C@H]12.[Na+] [Crystal form F, ertapenem sodium]

Content ([2]; 0 month): 99.2%
Purity ([2]; 0 month): 99.4%
Content ([2]; 1 month): 99.2%
Purity ([2]; 1 month): 99.4%
Content ([2]; 2 months): 99.2%
Purity ([2]; 2 months): 99.4%
Content ([2]; 3 months): 99.2%
Purity ([2]; 3 months): 99.4%
Content ([2]; 4 months): 99.2%
Purity ([2]; 4 months): 99.3%
Content ([2]; 5 months): 99.1%
Purity ([2]; 5 months): 99.3%
Content ([2]; 6 months): 99.1%
Purity ([2]; 6 months): 99.3%
Content ([2]; 7 months): 99.1%
Purity ([2]; 7 months): 99.3%
Content ([2]; 8 months): 99.1%
Purity ([2]; 8 months): 99.3%
Content ([2]; 9 months): 99.1%
Purity ([2]; 9 months): 99.3%
Content ([2]; 10 months): 99.1%
Purity ([2]; 10 months): 99.3%
Content ([2]; 11 months): 99.0%
Purity ([2]; 11 months): 99.2%
Content ([2]; 12 months): 99.0%
Purity ([2]; 12 months): 99.2%
Stability of the crystal form product (in words) ([2]; 12 months): very stable
SMILES: C[C@@H](O)[C@H]1C(=O)N2C(C(=O)[O-])=C(S[C@@H]3CN[C@H](C(=O)Nc4cccc(C(=O)O)c4)C3)[C@H](C)[C@H]12.[Na+] [Example 1, ertapenem sodium]

Content ([2]; 0 month): 99.1%
Purity ([2]; 0 month): 99.2%
Content ([2]; 1 month): 99.1%
Purity ([2]; 1 month): 99.2%
Content ([2]; 2 months): 99.1%
Purity ([2]; 2 months): 99.2%
Content ([2]; 3 months): 99.1%
Purity ([2]; 3 months): 99.2%
Content ([2]; 4 months): 99.1%
Purity ([2]; 4 months): 99.2%
Content ([2]; 5 months): 99.0%
Purity ([2]; 5 months): 99.1%
Content ([2]; 6 months): 99.0%
Purity ([2]; 6 months): 99.1%
Content ([2]; 7 months): 99.0%
Purity ([2]; 7 months): 99.1%
Content ([2]; 8 months): 99.0%
Purity ([2]; 8 months): 99.1%
Content ([2]; 9 months): 99.0%
Purity ([2]; 9 months): 99.1%
Content ([2]; 10 months): 99.0%
Purity ([2]; 10 months): 99.0%
Content ([2]; 11 months): 99.0%
Purity ([2]; 11 months): 99.0%
Content ([2]; 12 months): 99.0%
Purity ([2]; 12 months): 99.0%
Stability of the crystal form product (in words) ([2]; 12 months): very stable
SMILES: C[C@@H](O)[C@H]1C(=O)N2C(C(=O)[O-])=C(S[C@@H]3CN[C@H](C(=O)Nc4cccc(C(=O)O)c4)C3)[C@H](C)[C@H]12.[Na+] [Example 2, ertapenem sodium]
